Assay results from patent US20240391882A1 (Mirati Therapeutics, Inc., priority 2023, published 2024).

Key:
Type in all cases: cell-based
[1] = system: pAKT in T47D (PI3Kα H1047R mutant) cells; test: Inhibition of pAKT (alphaLISA Surefire Ultra AKT 1/2/3 pS473) in T47D cells; settings: Homo sapiens; T47D (PI3Kα H1047R mutant) cells, 24 hr compound incubation, alphaLISA pS473; read-out: T47D (H1047R) pAKT 24 hr (IC50)
Outline: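 AlphaLISA read-out of AKT pS473 in lysates after roughly 24 h compound exposure at 37° C in HBSS. Ten concentrations, 1:4 dilutions from a 10.4 μm top dose. Percent of control uses alpelisib at 3.125 μm as background and DMSO as vehicle; four-parameter curve gives IC50.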

[2] = system: T47D (PI3Kα H1047R mutant) cells; test: Cell viability (CellTiter-Glo 2.0) in T47D cells; settings: Homo sapiens, T47D, 72 h, approximately 72 hours
Outline: (§1)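 IC50 values derive from four-parameter fits of CellTiter-Glo luminescence expressed as percent of vehicle control. Cells (T47D or SKBR3) were plated at 1000/well the day before dosing and incubated about 72 h at 37° C with a 10-point, 1:4 series starting at 10 μm.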

[3] = system: SKBR3 (PI3Kα wild type) cells; test: Cell viability (CellTiter-Glo 2.0) in SKBR3 cells; settings: Homo sapiens, SK-BR-3; SKBR3 (PI3Kα wild type) cells, approximately 72 hours, CellTiter-Glo 2.0; read-out: SKBR3 (WT) Viability IC50
Outline: as §1

| Structure (SMILES) | IC50 [1] | IC50 [2] | IC50 [3] |
| --- | --- | --- | --- |
| Cc1cc([C@@H](C)Nc2ccc(Cl)nc2C(=O)O)c2nc(N3CC[C@@]4(CCCO4)C3)c(C#N)nc2c1 (single isomer, unassigned) [Example 253A] | 5.6 nM | 197 nM | 6.85 µM |
| Cc1cc([C@@H](C)Nc2ccc(Cl)nc2C(=O)O)c2nc(N3CCN(c4cc(C)no4)CC3)c(C#N)nc2c1 [Example 200, (R)-6-chloro-3-((1-(2-cyano-7-methyl-3-(4-(3-methylisoxazol-5-yl)piperazin-1-yl)quinoxalin-5-yl)ethyl)amino)picolinic acid] | 1.2 nM | 17.2 nM | 5.47 µM |
| Cc1cc([C@@H](C)Nc2ccc(Cl)nc2C(=O)O)c2nc(N3CCCOCC3)c(C#N)nc2c1 [Example 242, (R)-6-chloro-3-((1-(2-cyano-7-methyl-3-(1,4-oxazepan-4-yl)quinoxalin-5-yl)ethyl)amino)picolinic acid] | 0.28 nM | 35 nM | 8.26 µM |
| Cc1cc([C@@H](C)Nc2ccccc2C(=O)O)c2nc(N3CCC(F)(F)CC3)c(C)nc2c1 [Example 36, (R)-2-((1-(3-(4,4-difluoropiperidin-1-yl)-2,7-dimethylquinoxalin-5-yl)ethyl)amino)benzoic acid] | 93.7 nM | 1170 nM | > 10 µM |
| Cc1cc([C@@H](C)Nc2ccc(Cl)nc2C(=O)O)c2nc(N3CCc4cnccc4C3)c(C#N)nc2c1 [Example 216, (R)-6-chloro-3-((1-(2-cyano-3-(3,4-dihydro-2,6-naphthyridin-2(1H)-yl)-7-methylquinoxalin-5-yl)ethyl)amino)picolinic acid] | 0.45 nM | 48 nM | > 10 µM |
| Cc1cc([C@H](C)Nc2ccccc2C(=O)O)c2nc(N3CCC(F)(F)CC3)c(C#N)nc2c1 [Example 4, (S)-2-((1-(2-cyano-3-(4,4-difluoropiperidin-1-yl)-7-methylquinoxalin-5-yl)ethyl)amino)benzoate] | 844 nM | 9330 nM | > 10 µM |
| Cc1cc([C@@H](C)Nc2ccc(Cl)nc2C(=O)O)c2nc(N3C[C@@H](CO)C(F)(F)C3)c(C#N)nc2c1 (single isomer, unassigned) [Example 210B] | 0.8 nM | 121 nM | > 10 µM |
| Cc1cc([C@@H](C)Nc2ccc(Cl)nc2C(=O)O)c2nc(N3CC4(CCC4(F)F)C3)c(C#N)nc2c1 [Example 256, (R)-6-chloro-3-((1-(2-cyano-3-(5,5-difluoro-2-azaspiro[3.3]heptan-2-yl)-7-methylquinoxalin-5-yl)ethyl)amino)picolinic acid] | 0.11 nM | 310 nM | > 10 µM |
| Cc1cc([C@@H](C)Nc2ccccc2C(=O)O)c2nc(NC[C@@]3(C)CC3(F)F)c(C#N)nc2c1 (single isomer, unassigned) [Example 75B] | 39 nM | 720 nM | > 10 µM |
| Cc1cc([C@@H](C)Nc2ccc(Cl)nc2C(=O)O)c2nc(N3C[C@H]4C[C@@H]3CC4(F)F)c(C#N)nc2c1 (single isomer, unassigned) [Example 9] | 7.5 nM | 65.1 nM | 3.41 µM |
| Cc1cc([C@@H](C)Nc2ccc(Cl)nc2C(=O)O)c2nc(N3C[C@H]4COC[C@@H]4C3)c(C#N)nc2c1 (single isomer, unassigned) [Example 229A] | 0.55 nM | 16.6 nM | 3.08 µM |
| C[C@@H](Nc1ccccc1C(=O)O)c1cc(Cl)cc2nc(C#N)c(N3CCC(F)(F)CC3)nc12 [Example 30, (R)-2-((1-(7-chloro-2-cyano-3-(4,4-difluoropiperidin-1-yl)quinoxalin-5-yl)ethyl)amino)benzoic acid] | 4.7 nM | 183 nM | > 10 µM |
| Cc1cc([C@@H](C)Nc2ccc(Cl)nc2C(=O)O)c2nc(N3CCC(F)(F)[C@@H](CO)C3)c(C#N)nc2c1 (single isomer, unassigned) [Example 234A] | 2.8 nM | 73 nM | > 10 µM |
| Cc1cc([C@@H](C)Nc2ccc(Cl)nc2C(=O)O)c2nc(N3CCO[C@@H](CO)C3)c(C#N)nc2c1 [Example 235B, 6-chloro-3-(((R)-1-(2-cyano-3-((R)-2-(hydroxymethyl)morpholino)-7-methylquinoxalin-5-yl)ethyl)amino)picolinic acid] | 1.8 nM | 262 nM | > 10 µM |
| Cc1cc([C@@H](C)Nc2ccc(Cl)nc2C(=O)O)c2nc(N3C[C@H](C)OC[C@H]3C)c(C#N)nc2c1 [Example 238A, 6-chloro-3-(((R)-1-(2-cyano-3-((2S,5R)-2,5-dimethylmorpholino)-7-methylquinoxalin-5-yl)ethyl)amino)picolinic acid] | 10.4 nM | 216 nM | > 10 µM |
| Cc1cc([C@@H](C)Nc2ccc(Cl)nc2C(=O)O)c2nc(N3CCO[C@H](CO)C3)c(C#N)nc2c1 [Example 235A, 6-chloro-3-(((R)-1-(2-cyano-3-((S)-2-(hydroxymethyl)morpholino)-7-methylquinoxalin-5-yl)ethyl)amino)picolinic acid] | 2 nM | 183 nM | > 10 µM |
| Cc1cc([C@@H](C)Nc2ccc(Cl)nc2C(=O)O)c2nc(N3CC4(C3)CC(F)(F)C4)c(C#N)nc2c1 [Example 255, (R)-6-chloro-3-((1-(2-cyano-3-(6,6-difluoro-2-azaspiro[3.3]heptan-2-yl)-7-methylquinoxalin-5-yl)ethyl)amino)picolinic acid] | 3.7 nM | 170 nM | > 10 µM |
| Cc1cc([C@@H](C)Nc2ccc(Cl)nc2C(=O)O)c2nc(N3CCc4ccc(C#N)cc4C3)c(C#N)nc2c1 [Example 217, (R)-6-chloro-3-((1-(2-cyano-3-(7-cyano-3,4-dihydroisoquinolin-2(1H)-yl)-7-methylquinoxalin-5-yl)ethyl)amino)picolinic acid] | 0.69 nM | 64 nM | > 10 µM |
| Cc1cc([C@@H](C)Nc2ccc(Cl)nc2C(=O)O)c2nc(N3C[C@@H](F)C[C@H]3C)c(C#N)nc2c1 [Example 246A, 6-chloro-3-(((R)-1-(2-cyano-3-((2R,4S)-4-fluoro-2-methylpyrrolidin-1-yl)-7-methylquinoxalin-5-yl)ethyl)amino)picolinic acid] | 0.69 nM | 35 nM | > 10 µM |
| C[C@@H](Nc1ccc(Cl)nc1C(=O)O)c1cc(Cl)cc2nc(C#N)c(N3CC4(COC4)C3)nc12 [Example 145] | 1.4 nM | 90 nM | 9.96 µM |
| C[C@@H](Nc1ccccc1C(=O)O)c1cc(C2CC2)cc2nc(C#N)c(N3CCC(F)(F)CC3)nc12 [Example 37, (R)-2-((1-(2-cyano-7-cyclopropyl-3-(4,4-difluoropiperidin-1-yl)quinoxalin-5-yl)ethyl)amino)benzoic acid] | 94.6 nM | 588 nM | > 10 µM |
| CO[C@@H]1CCCN(c2nc3c([C@@H](C)Nc4ccc(Cl)nc4C(=O)O)cc(C)cc3nc2C#N)C1 [Example 196B, 6-chloro-3-(((R)-1-(2-cyano-3-((R)-3-methoxypiperidin-1-yl)-7-methylquinoxalin-5-yl)ethyl)amino)picolinic acid] | 2.2 nM | 61.4 nM | > 10 µM |
| Cc1cc([C@@H](C)Nc2ccc(Cl)nc2C(=O)O)c2nc(-c3ccc(=O)n(C)c3)c(C#N)nc2c1 [Example 223, (R)-6-chloro-3-((1-(2-cyano-7-methyl-3-(1-methyl-6-oxo-1,6-dihydropyridin-3-yl)quinoxalin-5-yl)ethyl)amino)picolinic acid] | 20 nM | 1030 nM | > 10 µM |
| Cc1cc([C@@H](C)Nc2ccc(Cl)nc2C(=O)O)c2nc(N3CC4CCC4(F)C3)c(C#N)nc2c1 (single isomer, unassigned) [Example 244B] | 1.3 nM | 89 nM | > 10 µM |
| Cc1cc([C@@H](C)Nc2ccc(Cl)nc2C(=O)O)c2nc(N3CCO[C@@H]4C[C@@H]43)c(C#N)nc2c1 (single isomer, unassigned) [Example 239A] | 1 nM | 39 nM | > 10 µM |
| Cc1cc([C@@H](C)Nc2ccc(Cl)nc2C(=O)O)c2nc(N3CCC4(CCO4)CC3)c(C#N)nc2c1 [Example 250, (R)-6-chloro-3-((1-(2-cyano-7-methyl-3-(1-oxa-7-azaspiro[3.5]nonan-7-yl)quinoxalin-5-yl)ethyl)amino)picolinic acid] | 1.2 nM | 37 nM | 4.89 µM |
| Cc1cc([C@@H](C)Nc2ccc(Cl)nc2C(=O)O)c2nc(N3CCC[C@@H]([C@@H](C)O)C3)c(C#N)nc2c1 [Example 261D, 6-chloro-3-(((R)-1-(2-cyano-3-((R)-3-((R)-1-hydroxyethyl)piperidin-1-yl)-7-methylquinoxalin-5-yl)ethyl)amino)picolinic acid] | 1.2 nM | 76 nM | > 10 µM |
| Cc1cc([C@@H](C)Nc2ccc(Cl)nc2C(=O)O)c2nc(N3CCC(N4CCCCC4=O)CC3)c(C#N)nc2c1 [Example 202, (R)-6-chloro-3-((1-(2-cyano-7-methyl-3-(2-oxo-[1,4′-bipiperidin]-1′-yl)quinoxalin-5-yl)ethyl)amino)picolinic acid] | 1.4 nM | 76.4 nM | 9.93 µM |
